# Results as given in patent EP0940081A1, “Combinations of active agents and disinfectants, preservatives and antiseptics containing same” (Bode Chemie GmbH & Co., priority 1998, dated 1999).
# Like-named read-outs stand apart in the source and are kept apart here.
# How the values were obtained:
# [1] = Cytotoxicity, cell count of monolayer culture after 24 h exposure; type: cell-based, human; conditions: human, fl amnion cells, 24 h, read-out: Median der Zellzahl
# Protocol: (§1) Methodik: Die Zytotoxizität wird an der FL-Linie (menschliche Amnionzellen) geprüft. 2-3 Tage nach der Zelleinsaat werden die Zellen, nachdem sie als einschichtige Zellkultur (Monolayer) vorliegen, nach Medienwechsel für 24 h mit der Prüfsubstanz exponiert, danach abgelöst und die Zellzahl in % zur Kontrolle mit dem Zellzähler Universal 87001 (mölab, Hilden) ermittelt.
# [2] = test system: FL-Linie (menschliche Amnionzellen); experiment: as above; type: cell-based, human; conditions: Prüfkonzentration 0,005 %; 24 h; 1440 min
# Protocol: as §1
# Pseudomonas aeruginosa = experiment: Agar incorporation test, bacteriostatic activity; type: cell-based; design: key to Bakteriostatische Wirksamkeit (Wachstum): ⊕⊕: ungehemmtes Wachstum; ⊕: vermindertes Wachstum; -: absolute Hemmung (a. H.); conditions: for Bakteriostatische Wirksamkeit (Wachstum): 24 h bei 36 °C
# Source text: (§2) Methodik: Percarbamid und Dodecylthiouroniumchlorid werden unter städigem Durchmischen bis zur vollständigen Homogenisierung erwärmt. Die Prüfung der Kombination im Vergleich zu den entsprechenden Monowirkstoffen auf bakteriostatische Wirksamkeit erfolgte im Agarinkorporationstest. Die zu untersuchenden Substanzen wurden in Wasser standardisierter Härte gelöst. Die Konzentration der Testsubstanzen im Nähragar wurde in einer geometrischen Reihe auf der Basis 2 abgestuft. Zum Beimpfen der Testplatten wurden die im Beispiel 1 genannten Testkeime 6 h in Caseinpepton-Sojamehlpepton-Lösung bebrütet und so in eine logarithmische Wachstumsphase gebracht. Danach wurden die Agarplatten sternförmig sektorenweise mit jeweils einer ? abgestrichenen Öse beimpft. Der Sektor von Proteus mirabilis wurde durch Gräben abgetrennt, um das Schwärmen zu verhindern. Nach 24 h Bebrütung bei 36 °C erfolgte die Bewertung des Bakterienwachstums unter Vergleich mit substanzfreien Kontrollplatten nach folgendem Schema: ++++ ungehemmtes Wachstum +++ geringe Wachstumshemmung (maximal ¾ des Wachstums der Kontrollen) ++ mäßige Wachstumshemmung (maximal ½ des Wachstums der Kontrollen) + starke Wachstumshemmung (maximal ¼ des Wachstums der Kontrollen) Das sog. ? verminderte Wachstum" (v. W.) umfaßt die Bereiche + bis +++ - absolute Hemmung (a. H.)
# (§3) In den Tabellen 5, 6 und 7 bedeuten ⊕⊕ ungehemmtes Wachstum und ⊕ vermindertes Wachstum.
# Enterococcus faecium = experiment: Agar incorporation test, bacteriostatic activity; type: cell-based; design: key: ⊕⊕: ungehemmtes Wachstum; ⊕: vermindertes Wachstum; -: absolute Hemmung (a. H.); conditions: 24 h bei 36 °C
# Source text: as §2, §3
# Escherichia coli = experiment: Agar incorporation test, bacteriostatic activity; type: cell-based; design: key: ⊕⊕: ungehemmtes Wachstum; ⊕: vermindertes Wachstum; -: absolute Hemmung (a. H.); conditions: 24 h bei 36 °C
# Source text: as §2, §3
# Proteus mirabilis = experiment: Agar incorporation test, bacteriostatic activity; type: cell-based; design: key: ⊕⊕: ungehemmtes Wachstum; ⊕: vermindertes Wachstum; -: absolute Hemmung (a. H.); conditions: 24 h bei 36 °C
# Source text: as §2, §3
# Staphylococcus aureus = experiment: Agar incorporation test, bacteriostatic activity; type: cell-based; design: key: ⊕⊕: ungehemmtes Wachstum; ⊕: vermindertes Wachstum; -: absolute Hemmung (a. H.); conditions: 24 h bei 36 °C
# Source text: as §2, §3
# [3] = test system: Candida albicans ATCC 10231; experiment: Röhrchenverdünnungstest, fungistatic activity; type: cell-based; design: key: +: Wachstum; -: kein Wachstum; conditions: 72 h bei 37 °C
# Protocol: (§4) Methodik der Prüfung auf bakteriostatische und fungistatische Wirksamkeit im Röhrchenverdünnungtest: In sterile Reagenzröhrchen werden je 5 ml der Verdünnungen der Prüfsubstanzen in Wasser standardisierter Härte mit 5 ml doppelt konzentrierter Caseinpepton-Sojamehl-Pepton-Lösung (CSL) vermischt. Zur Bestimmung der bakteriostatischen Wirkung werden die Röhrchen durch Zugabe von 0,1 ml einer 1 : 10 mit CSL verdünnten, 24 h bei 37 °C bebrüteten CSL-Kultur beimpft. Zur Prüfung der fungistatischen Wirkung werden je 0,1 ml einer unverdünnten, 72 h bei 37 °C bebrüteten CSL-Kultur von Candida albicans verwendet. Die Auswertung erfolgt nach einer Bebrütung von 72 h bei 37 °C. Es erfolgte außerdem eine Nachbeimpfung von CSA-Platten durch Ausstreichen der ? 72 h-Testlösungen", um das Wachstum der Testkeime zu beurteilen. Folgende Testkeime wurden eingesetzt: Sa: Staphylococcus aureus ATCC 6538 Ef: Enterococcus faecium ATCC 6057 Ec: Escherichia coli ATCC 11229 Pm: Proteus mirabilis ATCC 14153 Pa: Pseudomonas aeruginosa ATCC 15442 Ca: Candida albicans ATCC 10231
# [4] = test system: Candida albicans ATCC 10231; experiment: Quantitative suspension test, fungicidal activity (DGHM guideline); type: cell-based
# Source text: Methodik: Untersucht wurde ein Gemisch G 1 von 99,4 % MMPP und 0,6 % Decylthiouroniumbromid und ein Gemisch G 2 von 99,7 % MMPP und 0,3 % Decylthiouroniumbromid im Vergleich zu MMPP als Monowirkstoff entsprechend der Richtlinie für die Prüfung und Bewertung chemischer Desinfektionsverfahren der Deutschen Gesellschaft für Hygiene und Mikrobiologie. Testkeim: Candida albicans ATCC 10231 Enthemmer: Tween, Lecithin, Cystein (TLC)
# [5] = test system: Proteus mirabilis ATCC 14153; experiment: Röhrchenverdünnungstest, bacteriostatic activity; type: cell-based; design: key: +: Wachstum; -: kein Wachstum; conditions: 72 h bei 37 °C
# Protocol: as §4
# [6] = test system: Enterococcus faecium ATCC 6057; experiment: Röhrchenverdünnungstest, bacteriostatic activity; type: cell-based; design: key: +: Wachstum; -: kein Wachstum; conditions: 72 h bei 37 °C
# Protocol: as §4
# [7] = test system: Pseudomonas aeruginosa ATCC 15442; experiment: Röhrchenverdünnungstest, bacteriostatic activity; type: cell-based; design: key: +: Wachstum; -: kein Wachstum; conditions: 72 h bei 37 °C
# Protocol: as §4
# [8] = test system: Staphylococcus aureus ATCC 6538; experiment: Röhrchenverdünnungstest, bacteriostatic activity; type: cell-based; design: key: +: Wachstum; -: kein Wachstum; conditions: 72 h bei 37 °C
# Protocol: as §4
# [9] = test system: Escherichia coli ATCC 11229; experiment: Röhrchenverdünnungstest, bacteriostatic activity; type: cell-based; design: key: +: Wachstum; -: kein Wachstum; conditions: 72 h bei 37 °C
# Protocol: as §4
# [10] = Konzentration in Wasser 0,0015 %
# [11] = Konzentration in Wasser 0,003 %
# [12] = Konzentration in Wasser 0,006 %
# [13] = Konzentration in Wasser 0,012 %
# [14] = Konzentration in Wasser 0,025 %
structure (smiles),measurement,setting,value
CCCCCCCCCCCCSC(=N)N [Dodecylthiouroniumchlorid],viability at 24 h,"[1]; Prüfkonzentration 0,0001 %",101%
same,viability at 24 h,"[1]; Prüfkonzentration 0,005 %",70%
same,Median der Zellzahl,[2],"69,9 % der Kontrolle"
same,Bakteriostatische Wirksamkeit (Wachstum),"Pseudomonas aeruginosa; Konzentration in Wasser 0,1 %",-
same,Bakteriostatische Wirksamkeit (Wachstum),"Pseudomonas aeruginosa; Konzentration in Wasser 0,2 %",-
same,Bakteriostatische Wirksamkeit (Wachstum),"Pseudomonas aeruginosa; Konzentration in Wasser 0,4 %",-
same,Bakteriostatische Wirksamkeit (Wachstum),"Pseudomonas aeruginosa; Konzentration in Wasser 0,05 %",⊕
same,Bakteriostatische Wirksamkeit (Wachstum),"Pseudomonas aeruginosa; Konzentration in Wasser 0,8 %",-
same,Bakteriostatische Wirksamkeit (Wachstum),Pseudomonas aeruginosa; [10],⊕⊕
same,Bakteriostatische Wirksamkeit (Wachstum),Pseudomonas aeruginosa; [11],⊕⊕
same,Bakteriostatische Wirksamkeit (Wachstum),Pseudomonas aeruginosa; [12],⊕⊕
same,Bakteriostatische Wirksamkeit (Wachstum),Pseudomonas aeruginosa; [13],⊕⊕
same,Bakteriostatische Wirksamkeit (Wachstum),Pseudomonas aeruginosa; [14],⊕⊕
same,"Konzentration, durch die Pseudomonas aeruginosa gehemmt wird (minimale Hemmkonzentration)","Pseudomonas aeruginosa; single substance, resistentester Testkeim","0,1%"
same,Bakteriostatische Wirksamkeit (Wachstum),"Enterococcus faecium; Konzentration in Wasser 0,1 %",-
same,Bakteriostatische Wirksamkeit (Wachstum),"Enterococcus faecium; Konzentration in Wasser 0,2 %",-
same,Bakteriostatische Wirksamkeit (Wachstum),"Enterococcus faecium; Konzentration in Wasser 0,4 %",-
same,Bakteriostatische Wirksamkeit (Wachstum),"Enterococcus faecium; Konzentration in Wasser 0,05 %",-
same,Bakteriostatische Wirksamkeit (Wachstum),"Enterococcus faecium; Konzentration in Wasser 0,8 %",-
same,Bakteriostatische Wirksamkeit (Wachstum),Enterococcus faecium; [10],⊕⊕
same,Bakteriostatische Wirksamkeit (Wachstum),Enterococcus faecium; [11],⊕⊕
same,Bakteriostatische Wirksamkeit (Wachstum),Enterococcus faecium; [12],⊕
same,Bakteriostatische Wirksamkeit (Wachstum),Enterococcus faecium; [13],-
same,Bakteriostatische Wirksamkeit (Wachstum),Enterococcus faecium; [14],-
same,Bakteriostatische Wirksamkeit (Wachstum),"Escherichia coli; Konzentration in Wasser 0,1 %",-
same,Bakteriostatische Wirksamkeit (Wachstum),"Escherichia coli; Konzentration in Wasser 0,2 %",-
same,Bakteriostatische Wirksamkeit (Wachstum),"Escherichia coli; Konzentration in Wasser 0,4 %",-
same,Bakteriostatische Wirksamkeit (Wachstum),"Escherichia coli; Konzentration in Wasser 0,05 %",-
same,Bakteriostatische Wirksamkeit (Wachstum),"Escherichia coli; Konzentration in Wasser 0,8 %",-
same,Bakteriostatische Wirksamkeit (Wachstum),Escherichia coli; [10],⊕⊕
same,Bakteriostatische Wirksamkeit (Wachstum),Escherichia coli; [11],⊕⊕
same,Bakteriostatische Wirksamkeit (Wachstum),Escherichia coli; [12],⊕⊕
same,Bakteriostatische Wirksamkeit (Wachstum),Escherichia coli; [13],⊕
same,Bakteriostatische Wirksamkeit (Wachstum),Escherichia coli; [14],-
same,Bakteriostatische Wirksamkeit (Wachstum),"Proteus mirabilis; Konzentration in Wasser 0,1 %",-
same,Bakteriostatische Wirksamkeit (Wachstum),"Proteus mirabilis; Konzentration in Wasser 0,2 %",-
same,Bakteriostatische Wirksamkeit (Wachstum),"Proteus mirabilis; Konzentration in Wasser 0,4 %",-
same,Bakteriostatische Wirksamkeit (Wachstum),"Proteus mirabilis; Konzentration in Wasser 0,05 %",-
same,Bakteriostatische Wirksamkeit (Wachstum),"Proteus mirabilis; Konzentration in Wasser 0,8 %",-
same,Bakteriostatische Wirksamkeit (Wachstum),Proteus mirabilis; [10],⊕⊕
same,Bakteriostatische Wirksamkeit (Wachstum),Proteus mirabilis; [11],⊕⊕
same,Bakteriostatische Wirksamkeit (Wachstum),Proteus mirabilis; [12],⊕⊕
same,Bakteriostatische Wirksamkeit (Wachstum),Proteus mirabilis; [13],⊕
same,Bakteriostatische Wirksamkeit (Wachstum),Proteus mirabilis; [14],⊕
same,Bakteriostatische Wirksamkeit (Wachstum),"Staphylococcus aureus; Konzentration in Wasser 0,1 %",-
same,Bakteriostatische Wirksamkeit (Wachstum),"Staphylococcus aureus; Konzentration in Wasser 0,2 %",-
same,Bakteriostatische Wirksamkeit (Wachstum),"Staphylococcus aureus; Konzentration in Wasser 0,4 %",-
same,Bakteriostatische Wirksamkeit (Wachstum),"Staphylococcus aureus; Konzentration in Wasser 0,05 %",-
same,Bakteriostatische Wirksamkeit (Wachstum),"Staphylococcus aureus; Konzentration in Wasser 0,8 %",-
same,Bakteriostatische Wirksamkeit (Wachstum),Staphylococcus aureus; [10],⊕⊕
same,Bakteriostatische Wirksamkeit (Wachstum),Staphylococcus aureus; [11],⊕⊕
same,Bakteriostatische Wirksamkeit (Wachstum),Staphylococcus aureus; [12],-
same,Bakteriostatische Wirksamkeit (Wachstum),Staphylococcus aureus; [13],-
same,Bakteriostatische Wirksamkeit (Wachstum),Staphylococcus aureus; [14],-
"O=C(O)c1ccccc1C(=O)OO [MMPP, Magnesiummonoperphthalat]",Wachstum des Testkeims (Minimale Hemmkonzentrationen),"[3]; geprüfte Konzentration 0,85%",-
same,Wachstum des Testkeims (Minimale Hemmkonzentrationen),"[3]; geprüfte Konzentration 0,425%",+
same,log reduction at 0.5 %,"[4]; ATCC10231, 5 min, 0,5 %, x = 5, read-out: log. Reduktionsfaktoren bei einer Einwirkungszeit von x min",0.55
same,log reduction at 0.6 %,"[4]; ATCC10231, 5 min, 0,6 %, x = 5, read-out: log. Reduktionsfaktoren bei einer Einwirkungszeit von x min",0.83
same,log reduction at 0.425 %,"[4]; ATCC10231, 5 min, 0,425 %, x = 5, read-out: log. Reduktionsfaktoren bei einer Einwirkungszeit von x min",1
same,log reduction at 0.5 %,"[4]; ATCC10231, 0.25 h, 0,5 %, x = 15, read-out: log. Reduktionsfaktoren bei einer Einwirkungszeit von x min",0.88
same,log reduction at 0.6 %,"[4]; ATCC10231, 0.25 h, 0,6 %, x = 15, read-out: log. Reduktionsfaktoren bei einer Einwirkungszeit von x min",0.91
same,log reduction at 0.425 %,"[4]; ATCC10231, 0.25 h, 0,425 %, x = 15, read-out: log. Reduktionsfaktoren bei einer Einwirkungszeit von x min",1.5
same,log reduction at 0.5 %,"[4]; ATCC10231, 0.5 h, 0,5 %, x = 30, read-out: log. Reduktionsfaktoren bei einer Einwirkungszeit von x min",1.28
same,log reduction at 0.6 %,"[4]; ATCC10231, 0.5 h, 0,6 %, x = 30, read-out: log. Reduktionsfaktoren bei einer Einwirkungszeit von x min",1.7
same,log reduction at 0.425 %,"[4]; ATCC10231, 0.5 h, 0,425 %, x = 30, read-out: log. Reduktionsfaktoren bei einer Einwirkungszeit von x min",3.6
same,Wachstum des Testkeims (Minimale Hemmkonzentrationen),"[5]; geprüfte Konzentration 0,85%",-
same,Wachstum des Testkeims (Minimale Hemmkonzentrationen),"[5]; geprüfte Konzentration 0,425%",+
same,Wachstum des Testkeims (Minimale Hemmkonzentrationen),"[6]; geprüfte Konzentration 0,85%",-
same,Wachstum des Testkeims (Minimale Hemmkonzentrationen),"[6]; geprüfte Konzentration 0,425%",+
same,Wachstum des Testkeims (Minimale Hemmkonzentrationen),"[7]; geprüfte Konzentration 0,85%",-
same,Wachstum des Testkeims (Minimale Hemmkonzentrationen),"[7]; geprüfte Konzentration 0,425%",-
same,Wachstum des Testkeims (Minimale Hemmkonzentrationen),"[8]; geprüfte Konzentration 0,5%",+
same,Wachstum des Testkeims (Minimale Hemmkonzentrationen),"[8]; geprüfte Konzentration 0,6%",-
same,Wachstum des Testkeims (Minimale Hemmkonzentrationen),"[8]; geprüfte Konzentration 0,85%",-
same,Wachstum des Testkeims (Minimale Hemmkonzentrationen),"[8]; geprüfte Konzentration 0,425%",+
same,Wachstum des Testkeims (Minimale Hemmkonzentrationen),"[9]; geprüfte Konzentration 0,85%",-
same,Wachstum des Testkeims (Minimale Hemmkonzentrationen),"[9]; geprüfte Konzentration 0,425%",-
